Experimental data as given in patent US20210253562A1, “ACYLSUFONAMIDE COMPOUNDS USEFUL AS EP3 RECEPTOR ANTAGONISTS” (Janssen Pharmaceutica NV, priority 2018, published 2021).

Legend:
[1] = target: T1, EP3 membrane (EP3 receptor) (Homo sapiens, UniProt P43115); test: [3H]-PGE2 binding; EP3 competition binding (SPA)
T1 construct: purchased Millipore HTS092M
T1 sequence (P43115 1-390): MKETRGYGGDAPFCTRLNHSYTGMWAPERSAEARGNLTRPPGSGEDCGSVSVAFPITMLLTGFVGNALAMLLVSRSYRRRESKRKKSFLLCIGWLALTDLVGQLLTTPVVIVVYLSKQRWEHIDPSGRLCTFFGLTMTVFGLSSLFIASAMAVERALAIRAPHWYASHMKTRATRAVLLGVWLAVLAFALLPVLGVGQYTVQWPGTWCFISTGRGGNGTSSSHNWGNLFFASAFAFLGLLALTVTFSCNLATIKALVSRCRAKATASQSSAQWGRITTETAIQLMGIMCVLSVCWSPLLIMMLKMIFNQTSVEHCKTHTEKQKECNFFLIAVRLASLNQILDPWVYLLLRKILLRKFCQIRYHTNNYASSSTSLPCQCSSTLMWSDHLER
Method in brief: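 Ki derived from one-site nonlinear regression of scintillation proximity counts after 2 h room-temperature equilibration. Serially diluted (1:3) compounds competed against [3H]-PGE2 (2 nM) for EP3 receptor membranes (2 μg/well) in pH 7.4 Tris buffer with 10 mM MgCl2, 1 mM EDTA, 0.1% DMSO.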

[2] = target: T2, CHO cells over-expressing the EP3 receptor (Homo sapiens, UniProt P43115); test: CHO cell cAMP assay; EP3 cAMP antagonist dose response (sulprostone reference), HTRF; type: cell-based; conditions: sulprostone 700 nM (EC80) and FSK 2 μM (EC70); read-out: CHO_cAMP IC50
T2 construct: expressed in transfected cells; host or cells: CHO cells
T2 sequence (P43115 1-390): T1 sequence (P43115 1-390)
Method in brief: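 EP3-overexpressing CHO cells pre-incubated with test compound, then stimulated 30 min at 37 °C with FSK (2 μM, EC70) plus sulprostone (700 nM, EC80); antagonism seen as restored cAMP. cAMP measured by HTRF 665/615 ratio, converted via on-plate standard curve. IC50 from Hill fit of 11-point dosing.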

Compound	Ki [1] [nM]	IC50 [2] [nM]
COc1ccc(Cl)cc1S(=O)(=O)NC(=O)NC/C(F)=C1/c2c(cnn2Cc2ccc(Cl)cc2Cl)CCC1F (stereo not shown) [Compound #103, (E)-5-chloro-N-((2-(1-(2,4-dichlorobenzyl)-6-fluoro-1,4,5,6-tetrahydro-7H-indazol-7-ylidene)-2-fluoroethyl)carbamoyl)-2-methoxybenzenesulfonamide]	54	228
O=C(NC/C(F)=C1\COCc2cnn(-c3cccc(C(F)(F)F)c3)c21)NS(=O)(=O)c1ccc(Cl)cc1 [Compound #104, (E)-4-chloro-N-((2-fluoro-2-(1-(3-(trifluoromethyl)phenyl)-1,4-dihydropyrano[4,3-c]pyrazol-7(6H)-ylidene)ethyl)carbamoyl)benzenesulfonamide]	> 10000	> 20000
COc1ccc(-n2ncc3c2/C(=C/CNC(=O)NS(=O)(=O)c2ccc(Cl)cc2)CCC3)cn1 [Compound #105, (E)-4-chloro-N-((2-(1-(6-methoxypyridin-3-yl)-1,4,5,6-tetrahydro-7H-indazol-7-ylidene)ethyl)carbamoyl)benzenesulfonamide]	238	294
COc1ccc(Cl)cc1S(=O)(=O)NC(=O)NC/C(F)=C1/CCCc2cnn(-c3ccc4ccccc4c3)c21 [Compound #106, (E)-5-chloro-N-((2-fluoro-2-(1-(naphthalen-2-yl)-1,4,5,6-tetrahydro-7H-indazol-7-ylidene)ethyl)carbamoyl)-2-methoxybenzenesulfonamide]	> 10000	> 20000
COc1ccc(-n2ncc3c2/C(=C/CNC(=O)NS(=O)(=O)c2cc(Cl)c(Cl)s2)CCC3)cn1 [Compound #107, (E)-4,5-dichloro-N-((2-(1-(6-methoxypyridin-3-yl)-1,4,5,6-tetrahydro-7H-indazol-7-ylidene)ethyl)carbamoyl)thiophene-2-sulfonamide]	2	27
Cc1nn(Cc2ccc(Cl)cc2Cl)c2c1CCC/C2=C(/F)CNC(=O)NS(=O)(=O)c1cc(Cl)c(Cl)s1 [Compound #109, (Z)-4,5-dichloro-N-((2-(1-(2,4-dichlorobenzyl)-3-methyl-1,4,5,6-tetrahydro-7H-indazol-7-ylidene)-2-fluoroethyl)carbamoyl)thiophene-2-sulfonamide]	7	60
O=C(NC/C(F)=C1/CCCc2cnn(-c3ccc4ccccc4c3)c21)NS(=O)(=O)c1ccc2c(c1)OCCO2 [Compound #110, (E)-N-((2-fluoro-2-(1-(naphthalen-2-yl)-1,4,5,6-tetrahydro-7H-indazol-7-ylidene)ethyl)carbamoyl)-2,3-dihydrobenzo[b][1,4]dioxine-6-sulfonamide]	> 10000	> 20000
O=C(NC/C(F)=C1\CCCc2cnn(Cc3ccc(Cl)cc3Cl)c21)NS(=O)(=O)c1cc2ccccc2o1 [Compound #111, (Z)—N-((2-(1-(2,4-dichlorobenzyl)-1,4,5,6-tetrahydro-7H-indazol-7-ylidene)-2-fluoroethyl)carbamoyl)benzofuran-2-sulfonamide]	59	399
COc1ccc(F)cc1S(=O)(=O)NC(=O)NC/C(F)=C1/CCCc2cnn(-c3ccc4ccccc4c3)c21 [Compound #112, (E)-5-fluoro-N-((2-fluoro-2-(1-(naphthalen-2-yl)-1,4,5,6-tetrahydro-7H-indazol-7-ylidene)ethyl)carbamoyl)-2-methoxybenzenesulfonamide]	> 10000	> 20000
COc1ccc(F)cc1S(=O)(=O)NC(=O)NC/C(F)=C1\CCCc2cnn(-c3ccc4ccccc4c3)c21 [Compound #113, (Z)-5-fluoro-N-((2-fluoro-2-(1-(naphthalen-2-yl)-1,4,5,6-tetrahydro-7H-indazol-7-ylidene)ethyl)carbamoyl)-2-methoxybenzenesulfonamide]	4100	6900
O=C(NC/C(F)=C1\CCCc2cnn(-c3ccc4ccccc4c3)c21)NS(=O)(=O)c1ccc2c(c1)OCCO2 [Compound #114, (Z)—N-((2-fluoro-2-(1-(naphthalen-2-yl)-1,4,5,6-tetrahydro-7H-indazol-7-ylidene)ethyl)carbamoyl)-2,3-dihydrobenzo[b][1,4]dioxine-6-sulfonamide]	14500	> 20000
COc1ccc(Cl)cc1S(=O)(=O)NC(=O)NC/C(F)=C1\CCCc2cnn(-c3ccc4ccccc4c3)c21 [Compound #115, (Z)-5-chloro-N-((2-fluoro-2-(1-(naphthalen-2-yl)-1,4,5,6-tetrahydro-7H-indazol-7-ylidene)ethyl)carbamoyl)-2-methoxybenzenesulfonamide]	1100	4200
O=C(NC/C(F)=C1\CCCc2cnn(-c3ccc(C(F)(F)F)cc3)c21)NS(=O)(=O)c1ccc2c(c1)OCCO2 [Compound #116, (Z)—N-((2-fluoro-2-(1-(4-(trifluoromethyl)phenyl)-1,4,5,6-tetrahydro-7H-indazol-7-ylidene)ethyl)carbamoyl)-2,3-dihydrobenzo[b][1,4]dioxine-6-sulfonamide]	4100	> 20000
O=C(NC/C(F)=C1/CCCc2cnn(-c3ccc(C(F)(F)F)cc3)c21)NS(=O)(=O)c1ccc2c(c1)OCCO2 [Compound #117, (E)-N-((2-fluoro-2-(1-(4-(trifluoromethyl)phenyl)-1,4,5,6-tetrahydro-7H-indazol-7-ylidene)ethyl)carbamoyl)-2,3-dihydrobenzo[b][1,4]dioxine-6-sulfonamide]	> 10000	> 20000
O=C(NC/C(F)=C1\COCc2cnn(-c3ccc(C(F)(F)F)cc3)c21)NS(=O)(=O)c1ccc(Cl)cc1 [Compound #118, (E)-4-chloro-N-((2-fluoro-2-(1-(4-(trifluoromethyl)phenyl)-1,4-dihydropyrano[4,3-c]pyrazol-7(6H)-ylidene)ethyl)carbamoyl)benzenesulfonamide]	2000	16000
O=C(NC/C(F)=C1\COCc2cnn(-c3ccc(C(F)(F)F)cc3)c21)NS(=O)(=O)c1cc(Cl)c(Cl)s1 [Compound #119, (E)-4,5-dichloro-N-((2-fluoro-2-(1-(4-(trifluoromethyl)phenyl)-1,4-dihydropyrano[4,3-c]pyrazol-7(6H)-ylidene)ethyl)carbamoyl)thiophene-2-sulfonamide]	43	230
O=C(NC/C(F)=C1\CCCCc2cnn(Cc3ccc(Cl)cc3Cl)c21)NS(=O)(=O)c1cc(Cl)c(Cl)s1 [Compound #120, (Z)-4,5-dichloro-N-((2-(1-(2,4-dichlorobenzyl)-4,5,6,7-tetrahydrocyclohepta[c]pyrazol-8(1H)-ylidene)-2-fluoroethyl)carbamoyl)thiophene-2-sulfonamide]	10	12
O=C(NC/C(F)=C1\CCCc2cnn(Cc3ccc(Cl)cc3Cl)c21)NS(=O)(=O)c1cc2ccccc2s1 [Compound #121, (Z)—N-((2-(1-(2,4-dichlorobenzyl)-1,4,5,6-tetrahydro-7H-indazol-7-ylidene)-2-fluoroethyl)carbamoyl)benzo[b]thiophene-2-sulfonamide]	17	159
O=C(NC/C=C1\CCCc2cnn(C3CCN(c4ccc(F)cc4)CC3)c21)NS(=O)(=O)c1ccc(Cl)cc1 [Compound #122, (E)-4-chloro-N-((2-(1-(1-(4-fluorophenyl)piperidin-4-yl)-1,4,5,6-tetrahydro-7H-indazol-7-ylidene)ethyl)carbamoyl)benzenesulfonamide]	6	45
O=C(NC/C=C1\CCCc2cnn(C3CCN(c4ccc(F)cc4)CC3)c21)NS(=O)(=O)c1cc(Cl)c(Cl)s1 [Compound #123, (E)-4,5-dichloro-N-((2-(1-(1-(4-fluorophenyl)piperidin-4-yl)-1,4,5,6-tetrahydro-7H-indazol-7-ylidene)ethyl)carbamoyl)thiophene-2-sulfonamide]	1	6
O=C(NC/C(F)=C1\CCCc2cnn(-c3ccc(C(F)(F)F)cc3)c21)NS(=O)(=O)c1ccc(Cl)s1 [Compound #124, (Z)-5-chloro-N-((2-fluoro-2-(1-(4-(trifluoromethyl)phenyl)-1,4,5,6-tetrahydro-7H-indazol-7-ylidene)ethyl)carbamoyl)thiophene-2-sulfonamide]	100	798
O=C(NC/C(F)=C1\CCCc2cnn(-c3ccc(C(F)(F)F)cc3)c21)NS(=O)(=O)c1cc(Cl)c(Cl)s1 [Compound #125, (Z)-4,5-dichloro-N-((2-fluoro-2-(1-(4-(trifluoromethyl)phenyl)-1,4,5,6-tetrahydro-7H-indazol-7-ylidene)ethyl)carbamoyl)thiophene-2-sulfonamide]	3	20
CS(=O)(=O)c1ccc(-n2ncc3c2/C(=C/CNC(=O)NS(=O)(=O)c2cc(Cl)c(Cl)s2)CCC3)cc1 [Compound #126, (E)-4,5-dichloro-N-((2-(1-(4-(methylsulfonyl)phenyl)-1,4,5,6-tetrahydro-7H-indazol-7-ylidene)ethyl)carbamoyl)thiophene-2-sulfonamide]	1	30
